In patent publication US20220257531A1, “COMPOSITIONS AND METHODS FOR TREATMENT OF A FIBROTIC DISEASE” (Avexxin AS, priority 2017, published 2022):

Test system: BLM-induced pulmonary fibrosis in C57BL/6J mice
Test: Bleomycin (BLM)-induced pulmonary fibrosis model, Example 4
Assay type: in vivo
Description: The bleomycin model of idiopathic fibrosis (IPF) is a well-characterized and currently an extensively used animal model of Interstitial lung disease (ILD) due to its: i) ability to reproduce many aspects of the disease, ii) good reproducibility, and iii) ease of induction. Overall, studies using the bleomycin model have identified many of the cellular and molecular mechanisms now recognized as being important in pathogenesis of IPF, as well as novel therapies for ILDs. The model is based on intratracheal administration of bleomycin in mice that results in alveolar epithelial damage, alveolar inflammation and fibrosis within a period of 21 days. Consequently, the model allows therapeutic testing of novel agents within a reasonably short period of time (Liu T eta al, Methods Mol Biol. 2017;1627:27-42).
Test Article & Formulations Compound B (Synthetica A/S, Norway) was formulated for subcutaneous administration in a nano-emulsion containing 2 mg/ml Compound B, 2 mg/ml MCT oil (Lipoid), 2 mg/ml Polysorbate 80 (Fluka) and sodium citrate buffer 10 mM (pH 7). The final solution was sterilized by filtration and saturated with Argon 5.0 AGA prior to aliquoting in 10 ml tubes stored at −20° C. till further use. A separate Polysorbate 80- and sodium citrate buffer-based vehicle solution without Compound B and MCT oil was also prepared, sterilized, aliquoted and stored, serving as the subcutaneous vehicle control used in the UUO animal study. Nintedanib (approved and commercialized for IPF under the brand names Ofev/Vargatef) was used as a positive control. The compound was purchased from Chemexpress Co., Ltd. (China) and suspended in 1% methylcellulose.
Six-week-old female C57BL/6J mice were obtained from Japan SLC, Inc. (Japan). Animals were kept in an animal room facility at a temperature of 23±2° C., humidity of 45±10%, under a 12-hour light and dark cycle (light from 8:00 to 20:00). A high pressure of 20±4 Pa was kept in the experimental room to prevent contamination. The animals were housed in TPX cages (CLEA Japan; maximum of 6 mice per cage) and fed with a sterilized normal diet (CE-2; CLEA Japan, Japan) provided ad libitum, being placed in a metal lid on the top of the cage. Sterilized Paper-Clean (Japan SLC) was used for bedding and was replaced once a week. Pure water was provided ad libitum from a water bottle equipped with a rubber stopper and a sipper tube. […]
The viability, clinical signs and behavior were monitored every day. Body weight was recorded daily after the day of starting the BLM administration (Day 0). […]
To quantify lung hydroxyproline content, frozen whole left lung samples were processed by an acid hydrolysis method as follows. […]

In the case of `COC(=O)c1ccc2c(c1)NC(=O)/C2=C(\Nc1ccc(N(C)C(=O)CN2CCN(C)CC2)cc1)c1ccccc1` [Nintedanib], the “Body weight changes at sacrifice” value (100 mg/kg per os daily Day 7-20, Day 21, % of baseline Day 0, mean ± SD) is reported as 103 ± 5%, the “Lung Hydroxyproline” value (100 mg/kg per os daily Day 7-20, Day 21, mean ± SD) is reported as 50.6 ± 14.5 μg/ml left lung and the Ashcroft score (Masson's Trichrome, 100 mg/kg per os daily Day 7-20, mean ± SD) is reported as 1.6 ± 1.0. The “mice found dead before reaching Day 21” value (per treatment group of 12, treatment Day 7-20) was “three out of 12”.
